In PubChem BioAssay (NCI):
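Assay format: 96-well plates, 48-hour exposure. GI50: concentration for 50% inhibition of growth. TGI marks complete inhibition of growth.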 Where a SMILES comes first, the peptide text is derived from it. Bridges are numbered along the chain shown (N, C = ends). [ ]: non-standard residue; d: D form. ξ: configuration not given here. ξThr(3R) = C[C@@H](O)C(N)C(=O)O; S5 = C=CCCC[C@](C)(N)C(=O)O

Tests used:
Assay in all cases: NCI anticancer screen, dose series, 48 h
[1] = test system: HOP-92 NSCLC
[2] = test system: SF-295 CNS
[3] = test system: UACC-257 melanoma
[4] = test system: RPMI-8226 leukemia
[5] = test system: CCRF-CEM leukemia
[6] = test system: SK-OV-3 ovarian
[7] = test system: NCI/ADR-RES ovarian
[8] = test system: M14 melanoma
[9] = test system: NCI-H522 lung
[10] = test system: U251 CNS

## COc1cccc(/C=C/c2ccnc3ccccc23)c1OC
[1]
  TGI: > 10 µM
[2]
  TGI: > 10 µM
[3]
  TGI: > 10 µM
[4]
  TGI: > 10 µM
[5]
  TGI: > 10 µM
[6]
  TGI: > 10 µM
[7]
  TGI: > 10 µM
[8]
  TGI: > 10 µM
[9]
  TGI: > 10 µM
[10]
  TGI: > 10 µM

## C/C(=N/O)c1ccc2c(c1)/C(=N/O)c1ccccc1-2
[1]
  GI50: 27.8 µM
  TGI: 60 µM
[2]
  GI50: 22.6 µM
  TGI: 50.4 µM
[3]
  GI50: 29.4 µM
  TGI: 65.5 µM
[4]
  GI50: 22.5 µM
  TGI: 48.8 µM
[5]
  GI50: 25.4 µM
  TGI: 62.6 µM
[6]
  GI50: 35.7 µM
  TGI: > 100 µM
[7]
  GI50: 21 µM
  TGI: 48.6 µM
[8]
  GI50: 21.9 µM
  TGI: 40.6 µM
[9]
  GI50: 17.9 µM
  TGI: 35.2 µM
[10]
  GI50: 21.2 µM
  TGI: 46 µM

## CCCCN=C(N)c1ccc(N2CCCN(c3ccc(C(N)=NCCCC)cc3)CC2)cc1
[1]
  GI50: 14.6 µM
  TGI: > 84 µM
[2]
  GI50: 6.39 µM
  TGI: 57.6 µM
[3]
  GI50: 10 µM
  TGI: 66.8 µM
[4]
  GI50: 5.37 µM
  TGI: > 59.8 µM
[5]
  GI50: 16.3 µM
  TGI: > 100 µM
[6]
  GI50: > 100 µM
  TGI: > 100 µM
[7]
  GI50: > 100 µM
  TGI: > 100 µM
[8]
  GI50: 43.1 µM
  TGI: > 100 µM
[9]
  GI50: 11.8 µM
  TGI: > 100 µM
[10]
  GI50: 4.81 µM
  TGI: > 100 µM

## COc1cc(/C=C/C(=O)/C=C/c2cc3ccc(Cl)cc3n(Cc3ccccc3)c2=O)ccc1O
[1]
  GI50: 2.21 µM
  TGI: 5.44 µM
[2]
  GI50: 3 µM
  TGI: 10.8 µM
[3]
  GI50: 2.06 µM
  TGI: 4.83 µM
[4]
  GI50: 1.23 µM
  TGI: 10.9 µM
[5]
  GI50: 1.4 µM
  TGI: > 100 µM
[6]
  GI50: 5.95 µM
  TGI: 57.1 µM
[7]
  GI50: 2.86 µM
  TGI: > 100 µM
[8]
  GI50: 1.83 µM
  TGI: 4.67 µM
[9]
  GI50: 1.67 µM
  TGI: 3.5 µM
[10]
  GI50: 1.17 µM
  TGI: 2.55 µM

## NC(Cc1c[nH]c2ccc(F)cc12)C(=O)O (centres undefined)
[1]
  TGI: > 2500 µM
[2]
  GI50: 609 µM
  TGI: 1500 µM
[3]
  GI50: 475 µM
  TGI: 1220 µM
[4]
  GI50: 1240 µM
  TGI: > 2500 µM
[5]
  GI50: 1090 µM
  TGI: > 2500 µM
[6]
  GI50: 451 µM
  TGI: 1370 µM
[7]
  GI50: 675 µM
  TGI: > 2500 µM
[8]
  GI50: 643 µM
  TGI: > 2500 µM
[9]
  GI50: 1460 µM
  TGI: > 2500 µM
[10]
  GI50: 728 µM
  TGI: > 2500 µM

## O=c1c2ccccc2nc(-c2ccccc2Cl)n1-c1nnc(C(F)(F)F)s1
[1]
  GI50: 0.514 µM
  TGI: 3.43 µM
[2]
  GI50: 2.44 µM
  TGI: 9.11 µM
[4]
  GI50: 2.26 µM
  TGI: 8.13 µM
[5]
  GI50: 3.13 µM
  TGI: 40.7 µM
[6]
  GI50: 4.01 µM
  TGI: 39 µM
[7]
  GI50: 3.13 µM
  TGI: > 100 µM
[8]
  GI50: 4.17 µM
  TGI: 23.7 µM
[9]
  GI50: 2.43 µM
  TGI: 8.25 µM
[10]
  GI50: 2.46 µM
  TGI: 12.9 µM

## COc1c(O)cc2c(c1O)C(=O)C1=C(CCCC1)C2=O
[1]
  TGI: 82.7 µM
[2]
  TGI: 65.2 µM
[3]
  TGI: 81.2 µM
[4]
  TGI: 32.6 µM
[5]
  TGI: 10.9 µM
[6]
  TGI: 48.8 µM
[7]
  TGI: 51.5 µM
[8]
  TGI: > 100 µM
[9]
  TGI: 31.8 µM
[10]
  TGI: > 100 µM

## COc1cc(/C=C/C(=O)N2CCC=CC2=O)cc(OC)c1OC
[1]
  GI50: 2.29 µM
  TGI: 4.61 µM
[2]
  GI50: 6.37 µM
  TGI: 21.1 µM
[3]
  GI50: 2.23 µM
  TGI: 5.37 µM
[4]
  GI50: 1.5 µM
  TGI: 4.81 µM
[5]
  GI50: 2.12 µM
  TGI: 6.29 µM
[6]
  GI50: 13.8 µM
  TGI: 27.3 µM
[7]
  GI50: 3.41 µM
  TGI: 47.9 µM
[8]
  GI50: 1.92 µM
  TGI: 4.41 µM
[9]
  GI50: 1.8 µM
  TGI: 3.75 µM
[10]
  GI50: 3.19 µM
  TGI: 11 µM

## CCOC(=O)/C(C#N)=C1\SS/C(=C(/C#N)C(=O)OCC)S1
[1]
  GI50: 14.3 µM
  TGI: 28.3 µM
[2]
  GI50: > 100 µM
  TGI: > 100 µM
[3]
  GI50: 18.3 µM
  TGI: 34.8 µM
[4]
  GI50: 19.9 µM
  TGI: 73.5 µM
[5]
  GI50: 4.62 µM
  TGI: 67.7 µM
[6]
  GI50: > 100 µM
  TGI: > 100 µM
[7]
  GI50: 25.8 µM
  TGI: 65.3 µM
[8]
  GI50: 17 µM
  TGI: 35.9 µM
[9]
  GI50: 2.47 µM
  TGI: 7.59 µM
[10]
  GI50: 19 µM
  TGI: 38 µM

## CCN(CC)c1ccc(C2NC(=O)c3ccccc3N2)cc1 (centres undefined)
[1]
  TGI: 66.5 µM
[2]
  TGI: > 86.3 µM
[3]
  TGI: > 100 µM
[4]
  TGI: > 100 µM
[5]
  TGI: 3.38 µM
[6]
  TGI: > 100 µM
[7]
  TGI: > 100 µM
[8]
  TGI: > 100 µM
[9]
  TGI: > 100 µM
[10]
  TGI: > 100 µM

## O=C(COc1ccc(OCC(=O)N2C(=O)CN(c3ccccc3)C2=S)cc1)N1C(=O)CN(c2ccccc2)C1=S
[1]
  TGI: > 100 µM
[2]
  GI50: > 25 µM
  TGI: > 100 µM
[3]
  GI50: > 25 µM
  TGI: > 100 µM
[4]
  GI50: > 25 µM
  TGI: > 100 µM
[6]
  TGI: > 100 µM
[7]
  GI50: > 25 µM
  TGI: > 100 µM
[8]
  GI50: > 25 µM
  TGI: > 100 µM
[9]
  GI50: > 25 µM
  TGI: > 100 µM
[10]
  GI50: > 25 µM
  TGI: > 100 µM

## O=C(O)c1c(Cl)c(Cl)c(Cl)c(Cl)c1C(=O)Nc1ccc2cn[nH]c2c1
[1]
  TGI: > 100 µM
[2]
  TGI: > 100 µM
[3]
  TGI: > 100 µM
[4]
  TGI: > 100 µM
[6]
  TGI: > 100 µM
[7]
  TGI: > 100 µM
[8]
  TGI: > 100 µM
[9]
  TGI: > 100 µM
[10]
  TGI: > 100 µM

## O=C1C=CC(=Nc2cccc3c(N=C4C=CC(=O)O4)cccc23)O1
[1]
  TGI: > 100 µM
[2]
  TGI: > 100 µM
[3]
  TGI: 55.6 µM
[4]
  TGI: 58.2 µM
[6]
  TGI: > 100 µM
[7]
  TGI: > 100 µM
[8]
  TGI: 87.8 µM
[9]
  TGI: 34.3 µM
[10]
  TGI: > 100 µM

## CC(=O)N[C@H](C(=O)N[C@@H](CCCNC(=N)N)C(=O)N[C@@H](CCCCN)C(=O)N[C@@H](CCCNC(=N)N)C(=O)NC(C(=O)N[C@@H](CC(C)C)C(=O)N[C@@H](CCCNC(=N)N)C(=O)N[C@@]1(C)CCC/C=C\CCC[C@@](C)(C(=O)N[C@@H](CCCNC(=N)N)C(=O)N[C@@H](CCC(=O)O)C(=O)N[C@@H](CC(C)C)C(=O)N[C@H](C(=O)N[C@@H](CCC(=O)O)C(N)=O)C(C)C)NC(=O)[C@H](CCC(N)=O)NC(=O)[C@H](CC(C)C)NC(=O)[C@H](CC(C)C)NC1=O)[C@@H](C)O)C(C)C (stereo partly drawn) (Ac-VRKR[ξThr(3R)]LR[S5]LLQ[S5]RELVE-NH2; staple (Z) 8-12)
[1]
  GI50: 2.45 µM
  TGI: 8.89 µM
[2]
  GI50: 4.69 µM
  TGI: 12.1 µM
[4]
  GI50: 8.77 µM
  TGI: 18.9 µM
[5]
  GI50: 11.2 µM
  TGI: 34.2 µM
[6]
  GI50: 5.55 µM
  TGI: 14.9 µM
[7]
  GI50: 7.9 µM
  TGI: 16.7 µM
[8]
  GI50: 4.27 µM
  TGI: 11.5 µM
[9]
  GI50: 5.75 µM
  TGI: 16.4 µM
[10]
  GI50: 2.99 µM
  TGI: 10.4 µM
